{"source": "paper PMC7395068", "about": "“The evolution of strategies to minimise the risk of human drug-induced liver injury (DILI) in drug discovery and development” (Archives of Toxicology, 2020)", "key": {"[1]": {"system": "THLE or HepG2 cells, isolated mitochondria, BSEP", "conditions": "cited from earlier work"}, "HepaRG spheroids": {"system": "HepaRG spheroids", "assay": "Combined HCI (HCS) and cellular ATP 3D assay in HepaRG spheroids", "conditions": "for AC50 / minimal effective concentration: Homo sapiens"}, "hLiMTs [2]": {"system": "hLiMTs", "assay": "Combined HCI (HCS) and cellular ATP 3D assay in hLiMTs", "conditions": "for AC50 / minimal effective concentration: Homo sapiens"}, "[3]": {"conditions": "cited from earlier work"}, "PHH": {"system": "PHH", "conditions": "cited from earlier work"}, "hLiMTs [4]": {"system": "hLiMTs", "conditions": "cited from earlier work"}, "[5]": {"conditions": "ref Chen 2011; cited from earlier work"}, "[6]": {"system": "primary human hepatocytes, NIH3T3 fibroblasts, BSEP, CYP3A4", "conditions": "cited from earlier work"}, "[7]": {"conditions": "cited from earlier work", "remark": "listed apart in the source"}, "[8]": {"conditions": "plasma free fraction; cited from earlier work"}, "[9]": {"system": "HepG2 C3A spheroid, BSEP, Glu/Gal in HepG2 cells, bioactivation", "conditions": "cited from earlier work"}, "[10]": {"conditions": "Modeled in vitro assays (cytotoxicity, mitochondrial dysfunction, BSEP), ref Aleo et al. 2019"}, "[11]": {"conditions": "Microtissue model structural based (HCI), combined HCS and ATP, MEC < 25 × Cmax.tot cut-off"}, "[12]": {"conditions": "In vitro Assay, ref Proctor 2017"}, "[13]": {"conditions": "In vitro Assay, ref Schadt 2015"}}, "note": "Like-named read-outs stand apart in the source and are kept apart here.", "data": [{"smiles": "CS(=O)(=O)CCNCc1ccc(-c2ccc3ncnc(Nc4ccc(OCc5cccc(F)c5)c(Cl)c4)c3c2)o1", "note": "[lapatinib]", "values": [{"measurement": "Partition Hybrid HRM Score", "setting": "[1]; In vitro Assay, ref Aleo 2019", "result": "+VE"}, {"measurement": "Ro2 Hybrid HRM Score", "setting": "[1]; In vitro Assay, ref Aleo 2019", "result": "+VE"}, {"measurement": "Partition Hybrid HRM Score ≥4, Aleo (2019)", "setting": "[1]; [10]", "result": "+VE (Partition Hybrid HRM Score ≥4)"}, {"measurement": "Partition Hybrid HRM Score ≥8, Aleo (2019)", "setting": "[1]; [10]", "result": "+VE (Partition Hybrid HRM Score ≥8)"}, {"measurement": "Rule of Two hybrid HRM Score ≥3, Aleo (2019)", "setting": "[1]; [10]", "result": "+VE (Rule of Two hybrid HRM Score ≥3)"}, {"measurement": "Rule of Two hybrid HRM Score ≥8, Aleo (2019)", "setting": "[1]; [10]", "result": "+VE (Rule of Two hybrid HRM Score ≥8)"}, {"measurement": "HepaRG <25x Avg Cmax ATP", "setting": "HepaRG spheroids; HepaRG, ATP endpoint, cut-off <25x Avg Cmax", "result": "+ve"}, {"measurement": "HepaRG <100x Avg Cmaxu ATP", "setting": "HepaRG spheroids; HepaRG, ATP endpoint, cut-off <100x Avg Cmaxu", "result": "+ve (<100x Avg Cmaxu)"}, {"measurement": "HepaRG <25x Avg Cmax HCS", "setting": "HepaRG spheroids; HepaRG, HCS endpoints, cut-off <25x Avg Cmax", "result": "+ve"}, {"measurement": "HepaRG <100x Avg Cmaxu HCS", "setting": "HepaRG spheroids; HepaRG, HCS endpoints, cut-off <100x Avg Cmaxu", "result": "+ve (<100x Avg Cmaxu)"}, {"measurement": "HepaRG <25x Avg Cmax All", "setting": "HepaRG spheroids; HepaRG, all endpoints (ATP and HCS), cut-off <25x Avg Cmax", "result": "+ve"}, {"measurement": "HepaRG Cmax max All", "setting": "HepaRG spheroids; HepaRG, all endpoints, Cmax max used", "result": "+ve"}, {"measurement": "HepaRG Cmax min All", "setting": "HepaRG spheroids; HepaRG, all endpoints, Cmax min used", "result": "+ve"}, {"measurement": "HepaRG <10 uM All", "setting": "HepaRG spheroids; HepaRG, all endpoints, cut-off <10 uM", "result": "+ve (<10 uM)"}, {"measurement": "HepaRG <100x Avg Cmaxu All", "setting": "HepaRG spheroids; HepaRG, all endpoints, cut-off <100x Avg Cmaxu", "result": "+ve (<100x Avg Cmaxu)"}, {"measurement": "AC50", "setting": "HepaRG spheroids; HepaRG, read-out: ATP endpoint AC50", "result": 2.11, "unit": "µM"}, {"measurement": "minimal effective concentration", "setting": "HepaRG spheroids; HepaRG, read-out: ATP endpoint MEC", "result": 1.21, "unit": "µM"}, {"measurement": "AC50", "setting": "HepaRG spheroids; HepaRG, read-out: HCS endpoint AC50", "result": 2.25, "unit": "µM"}, {"measurement": "minimal effective concentration", "setting": "HepaRG spheroids; HepaRG, read-out: HCS endpoint MEC", "result": 0.768, "unit": "µM"}, {"measurement": "DILI prediction HepaRG spheroids (HCS-MEC)", "setting": "HepaRG spheroids; [11]", "result": "+VE (MEC < 25 × Cmax.tot cut-off)"}, {"measurement": "AC50", "setting": "hLiMTs [2]; read-out: ATP endpoint AC50", "result": 30.1, "unit": "µM"}, {"measurement": "minimal effective concentration", "setting": "hLiMTs [2]; read-out: ATP endpoint MEC", "result": 12.6, "unit": "µM"}, {"measurement": "AC50", "setting": "hLiMTs [2]; read-out: HCS endpoint AC50", "result": 30.7, "unit": "µM"}, {"measurement": "minimal effective concentration", "setting": "hLiMTs [2]; read-out: HCS endpoint MEC", "result": 1.79, "unit": "µM"}, {"measurement": "DILI prediction hLiMTs (HCS-MEC)", "setting": "hLiMTs [2]; [11]", "result": "+VE (MEC < 25 × Cmax.tot cut-off)"}, {"measurement": "hLiMTs <25x Avg Cmax ATP", "setting": "hLiMTs [2]; hLiMTs, ATP endpoint, cut-off <25x Avg Cmax", "result": "+ve"}, {"measurement": "hLiMTs <100x Avg Cmaxu ATP", "setting": "hLiMTs [2]; hLiMTs, ATP endpoint, cut-off <100x Avg Cmaxu", "result": "-ve"}, {"measurement": "hLiMTs <25x Avg Cmax HCS", "setting": "hLiMTs [2]; hLiMTs, HCS endpoints, cut-off <25x Avg Cmax", "result": "+ve"}, {"measurement": "hLiMTs <100x Avg Cmaxu HCS", "setting": "hLiMTs [2]; hLiMTs, HCS endpoints, cut-off <100x Avg Cmaxu", "result": "+ve (<100x Avg Cmaxu)"}, {"measurement": "hLiMTs <25x Avg Cmax All", "setting": "hLiMTs [2]; hLiMTs, all endpoints (ATP and HCS), cut-off <25x Avg Cmax", "result": "+ve"}, {"measurement": "hLiMTs Cmax max All", "setting": "hLiMTs [2]; hLiMTs, all endpoints, Cmax max used", "result": "+ve"}, {"measurement": "hLiMTs Cmax min All", "setting": "hLiMTs [2]; hLiMTs, all endpoints, Cmax min used", "result": "+ve"}, {"measurement": "hLiMTs <10 uM All", "setting": "hLiMTs [2]; hLiMTs, all endpoints, cut-off <10 uM", "result": "+ve (<10 uM)"}, {"measurement": "hLiMTs <100x Avg Cmaxu All", "setting": "hLiMTs [2]; hLiMTs, all endpoints, cut-off <100x Avg Cmaxu", "result": "+ve (<100x Avg Cmaxu)"}, {"measurement": "DILI severity category (Chen et al. [2016])", "setting": "[3]; LTKB DILIrank category, ref Chen et al. 2016", "result": "Most"}, {"measurement": "DILI severity category (Chen 2016)", "setting": "[3]; human DILI classification, LTKB DILIrank, ref Chen et al. 2016", "result": "Most"}, {"measurement": "DILI severity category", "setting": "[3]; human DILI severity, ref Chen et al.", "result": "Most"}, {"measurement": "DILI +VE (5-8), DILI -VE (-4)", "setting": "[3]; ref Chen 2016", "result": "+VE"}, {"measurement": "DILI severity category", "setting": "[3]; ref Chen 2016", "result": "vMost-DILI-Concern"}, {"measurement": "PHH/100uM, Proctor (2017)", "setting": "PHH; 2D PHH, ATP, IC50 threshold 100 µM, ref Proctor et al. 2017", "result": "+VE (IC50 threshold of 100 µM)"}, {"measurement": "PHH ATP <100uM", "setting": "PHH; [12]", "result": "+VE (IC50 threshold of 100 µM)"}, {"measurement": "hLiMTs ATP <100uM", "setting": "hLiMTs [4]; [12]", "result": "+VE (IC50 threshold of 100 µM)"}, {"measurement": "hLiMTs/100uM, Proctor (2017)", "setting": "hLiMTs [4]; hLiMTs, ATP, IC50 threshold 100 µM, ref Proctor et al. 2017", "result": "+VE (IC50 threshold of 100 µM)"}, {"measurement": "DILI Score (FDA) (1-8)", "setting": "[5]", "result": 8}, {"measurement": "DILI in vitro assay prediction, Schadt (2015)", "setting": "[6]; BSEP & Metabolism based, ref Schadt et al. 2015", "result": "+VE"}, {"measurement": "Cellular toxicity (3T3 cells)", "setting": "[6]; [13]", "result": "+VE"}, {"measurement": "GSH adduct HML", "setting": "[6]; [13]", "result": "+VE"}, {"measurement": "Hepatocyte cellular toxicity", "setting": "[6]; [13]", "result": "-VE"}, {"measurement": "MitoTox 3T3", "setting": "[6]; [13]", "result": "-VE"}, {"measurement": "TDI CYP3A4", "setting": "[6]; [13]", "result": "+VE"}, {"measurement": "hBSEP inhibition", "setting": "[6]; [13]", "result": "-VE"}, {"measurement": "Assigned DILI category", "setting": "[7]; Chen et al. 2016 or literature alignment, ref Chen et al. 2016", "result": 3}, {"measurement": "In vivo DILI", "setting": "[7]; ref Aleo 2019", "result": "+VE"}, {"measurement": "In vivo DILI", "setting": "[7]; ref Proctor 2017", "result": "+VE"}, {"measurement": "In vivo DILI", "setting": "[7]; ref Schadt 2015", "result": "+VE"}, {"measurement": "In vivo DILI", "setting": "[7]; ref Williams 2019", "result": "+VE"}, {"measurement": "fu", "setting": "[8]", "result": 0.010}, {"measurement": "Bayesian Machine Learning DILI prediction, Williams (2019)", "setting": "[9]; Bayesian modeling, ref Williams et al. 2019", "result": "+VE"}, {"measurement": "Bayesian Machine Learning", "setting": "[9]; In vitro Assay, ref Williams 2019", "result": "+VE"}]}]}
